Experimental data as given in PubChem BioAssay AID248 (DTP/NCI, 2004).
“And” between values parts separate entries of the source, which are not always exact repeats. Identical values can stand only once. Toxic doses and inconclusive results are not listed. No stated cut-off is given here; in the data, active means T/C of 150% or more; inactive means T/C below 125%.

System: L1210 leukemia ip in BDF1 mice, survival T/C
Experiment: NCI In Vivo Anticancer Drug Screen. Data for tumor model L1210 Leukemia (intraperitoneal) in B6D2F1 (BDF1) mice
Conditions: endpoint: mean survival time, higher = longer survival
In short: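 In this screen, tumor-bearing mice given compound are compared to those given vehicle, and their survival values are reported as a treated-to-control quotient.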

[1] = dose: 100.0 mg/kg/injection, schedule: Q01DX001 (ip), vehicle: Klucel (hydroxypropylcellulose) (HPC)
[2] = dose: 200.0 mg/kg/injection, schedule: Q01DX001 (ip), vehicle: Klucel (hydroxypropylcellulose) (HPC)
[3] = dose: 100.0 mg/kg/injection, schedule: Q04DX002 (ip), vehicle: Klucel (hydroxypropylcellulose) (HPC)
[4] = dose: 200.0 mg/kg/injection, schedule: Q04DX002 (ip), vehicle: Klucel (hydroxypropylcellulose) (HPC)
[5] = dose: 100.0 mg/kg/injection, schedule: Q01DX009 (ip), vehicle: Klucel (hydroxypropylcellulose) (HPC)
[6] = dose: 200.0 mg/kg/injection, schedule: Q01DX009 (ip), vehicle: Klucel (hydroxypropylcellulose) (HPC)
[7] = dose: 400.0 mg/kg/injection, schedule: Q01DX009 (ip), vehicle: Klucel (hydroxypropylcellulose) (HPC)
[8] = dose: 100.0 mg/kg/injection, schedule: Q04DX003 (ip), vehicle: Klucel (hydroxypropylcellulose) (HPC)
[9] = dose: 200.0 mg/kg/injection, schedule: Q04DX003 (ip), vehicle: Klucel (hydroxypropylcellulose) (HPC)
[10] = dose: 400.0 mg/kg/injection, schedule: Q04DX003 (ip), vehicle: Klucel (hydroxypropylcellulose) (HPC)
[11] = dose: 12.5 mg/kg/injection, schedule: Q01DX009 (ip), vehicle: Klucel (hydroxypropylcellulose) (HPC)
[12] = dose: 25.0 mg/kg/injection, schedule: Q04DX003 (ip), vehicle: Klucel (hydroxypropylcellulose) (HPC)
[13] = dose: 100.0 mg/kg/injection, schedule: Q01DX009 (ip), vehicle: saline with Tween-80
[14] = dose: 100.0 mg/kg/injection, schedule: Q01DX001 (ip), vehicle: saline
[15] = dose: 200.0 mg/kg/injection, schedule: Q01DX001 (ip), vehicle: saline
[16] = dose: 400.0 mg/kg/injection, schedule: Q01DX001 (ip), vehicle: saline

Measured: T/C

O=C(COc1cccc(Cl)c1)Nc1cccc(S(=O)(=O)O)c1 (tested in a mixture with another compound)
inactive: [1] 100 % of control | [2] 99 % of control | dose: 400.0 mg/kg/injection, schedule: Q01DX001 (ip), vehicle: Klucel (hydroxypropylcellulose) (HPC) 87 % of control

CCN(CC)C(=O)C1CCCCC1C (configuration not stated)
inactive: dose: 100.0 mg/kg/injection, schedule: Q04DX002 (ip), vehicle: saline 111 % of control | dose: 200.0 mg/kg/injection, schedule: Q04DX002 (ip), vehicle: saline 105 % of control

O=NO.[Co].[NH2-].[NH2-].[NH2-].[NH2-].[NH2-]
inactive: dose: 25.0 mg/kg/injection, schedule: Q04DX003 (ip), vehicle: saline 101 % of control

CSc1ncnc2nncnc12
inactive: dose: 5.0 mg/kg/injection, schedule: Q01DX001 (ip), vehicle: other 104 % of control | dose: 10.0 mg/kg/injection, schedule: Q01DX001 (ip), vehicle: other 106 % of control | dose: 20.0 mg/kg/injection, schedule: Q01DX001 (ip), vehicle: other 101 % of control | dose: 40.0 mg/kg/injection, schedule: Q01DX001 (ip), vehicle: other 98 % of control

Cc1ccc2c(c1)[n+]([O-])c(N)c(C#N)[n+]2[O-]
inactive: [3] 102 % of control | [4] 98 % of control

CCOC(=O)/C=C/C(=O)OCC
inactive: [5] 100 % of control | [6] 103 % of control | [7] 108 % of control

CCCOc1cc(C)c2cc(Cc3cc(C)c4nc(OCCC)cc(C)c4c3)cc(C)c2n1
inactive: dose: 100.0 mg/kg/injection, schedule: Q01DX001 (ip), vehicle: other 87 % of control | dose: 200.0 mg/kg/injection, schedule: Q01DX001 (ip), vehicle: other 95 % of control | dose: 400.0 mg/kg/injection, schedule: Q01DX001 (ip), vehicle: other 101 % of control

CC(C)=C1C2CCC1C(COS(=O)(=O)c1ccc(C)cc1)C2COS(=O)(=O)c1ccc(C)cc1 (configuration not stated)
inactive: [5] 96 % of control | [8] 98 % of control | [6] 100 % of control | [9] 104 % of control | [7] 94 % of control | [10] 102 % of control

CCCCCCCCCCCNC(=O)CCl
inactive: dose: 75.0 mg/kg/injection, schedule: Q04DX003 (ip), vehicle: Klucel (hydroxypropylcellulose) (HPC) 91 % of control | dose: 150.0 mg/kg/injection, schedule: Q04DX003 (ip), vehicle: Klucel (hydroxypropylcellulose) (HPC) 92 % of control | dose: 300.0 mg/kg/injection, schedule: Q04DX003 (ip), vehicle: Klucel (hydroxypropylcellulose) (HPC) 89 % of control

CC(=O)Nc1cccc(OC(=O)Nc2cccc(Cl)c2Cl)c1
inactive: [5] 97 % of control | [6] 102 % of control | [7] 103 % of control

Cc1ccc(C(C)C)c(O)c1C(=O)O
inactive: [1] 96 % of control | [2] 104 % of control

Cc1ccc(S(=O)(=O)N2CCCCC2)cc1
inactive: dose: 100.0 mg/kg/injection, schedule: Q04DX003 (ip), vehicle: saline 91 % of control | dose: 200.0 mg/kg/injection, schedule: Q04DX003 (ip), vehicle: saline 96 % of control | dose: 400.0 mg/kg/injection, schedule: Q04DX003 (ip), vehicle: saline 97 % of control

Clc1nc2ccccc2nc1C(Cl)Cl
inactive: [1] 101 % of control | [2] 110 % of control

OC(/C=C/C(O)c1ccccc1)c1ccccc1 (configuration not stated)
inactive: [11] 97 % of control | dose: 12.5 mg/kg/injection, schedule: Q04DX003 (ip), vehicle: Klucel (hydroxypropylcellulose) (HPC) 95 % of control | dose: 25.0 mg/kg/injection, schedule: Q01DX009 (ip), vehicle: Klucel (hydroxypropylcellulose) (HPC) 98 % of control | [12] 100 % of control | dose: 50.0 mg/kg/injection, schedule: Q01DX009 (ip), vehicle: Klucel (hydroxypropylcellulose) (HPC) 98 % of control | dose: 50.0 mg/kg/injection, schedule: Q04DX003 (ip), vehicle: Klucel (hydroxypropylcellulose) (HPC) 94 % of control

CN1CCCN(C)C1
inactive: dose: 50.0 mg/kg/injection, schedule: Q01DX009 (ip), vehicle: saline with Tween-80 100 % of control | [13] 100 % of control | dose: 100.0 mg/kg/injection, schedule: Q04DX003 (ip), vehicle: saline with Tween-80 93 % of control | dose: 200.0 mg/kg/injection, schedule: Q04DX003 (ip), vehicle: saline with Tween-80 88 % of control

NC(CSC(c1ccccc1)c1ccccc1)C(=O)O (configuration not stated)
inactive: dose: 10.0 mg/kg/injection, schedule: Q01DX015 (ip), vehicle: saline 97 % of control | dose: 20.0 mg/kg/injection, schedule: Q01DX015 (ip), vehicle: saline 91 % of control | dose: 40.0 mg/kg/injection, schedule: Q01DX015 (ip), vehicle: saline 95 % of control | dose: 50.0 mg/kg/injection, schedule: Q01DX001 (ip), vehicle: carboxymethylcellulose (CMC) 98 % of control | dose: 79.0 mg/kg/injection, schedule: Q01DX015 (ip), vehicle: saline 92 % of control | dose: 100.0 mg/kg/injection, schedule: Q01DX001 (ip), vehicle: carboxymethylcellulose (CMC) 101 % of control | [14] 101 % of control | dose: 158.0 mg/kg/injection, schedule: Q01DX015 (ip), vehicle: saline 95 % of control | dose: 200.0 mg/kg/injection, schedule: Q01DX001 (ip), vehicle: carboxymethylcellulose (CMC) 87 % of control | [15] 100 % of control | dose: 316.0 mg/kg/injection, schedule: Q01DX015 (ip), vehicle: saline 98 % of control | dose: 400.0 mg/kg/injection, schedule: Q01DX001 (ip), vehicle: carboxymethylcellulose (CMC) 87 % of control | [16] 101 % of control | dose: 632.0 mg/kg/injection, schedule: Q01DX015 (ip), vehicle: saline 97 % of control

COC1(c2cccs2)OC1(C)C (configuration not stated)
inactive: [13] 110 % of control | dose: 200.0 mg/kg/injection, schedule: Q01DX009 (ip), vehicle: saline with Tween-80 94 % of control | dose: 400.0 mg/kg/injection, schedule: Q01DX009 (ip), vehicle: saline with Tween-80 100 % of control

O=S1(=O)Cc2ccccc2-c2ccccc2C1Cl (configuration not stated)
inactive: dose: 50.0 mg/kg/injection, schedule: Q04DX002 (ip), vehicle: Klucel (hydroxypropylcellulose) (HPC) 100 % of control | [5] 98 % of control | [3] 100 % of control | [6] 100 % of control | [4] 97 % of control | [7] 96 % of control

O=C(O)CCC(CC(=O)O)c1ccccc1 (configuration not stated)
inactive: [5] 97 % of control | [6] 96 % of control | [7] 93 % of control

COC(=O)c1ccc(C(=O)O)cc1[N+](=O)[O-]
inactive: [5] 102 % of control | [6] 102 % of control | [7] 90 % of control

CC(=O)Oc1ccc(N2C(=O)C=CC2=O)cc1
inactive: dose: 3.12 mg/kg/injection, schedule: Q01DX009 (ip), vehicle: Klucel (hydroxypropylcellulose) (HPC) 97 % of control | dose: 6.25 mg/kg/injection, schedule: Q01DX009 (ip), vehicle: Klucel (hydroxypropylcellulose) (HPC) 96 % of control | [11] 100 % of control | [12] 118 % of control

CN(C)C=NC1c2ccccc2CCc2ccccc21
inactive: [5] 98 % of control | [8] 104 % of control | [6] 97 % of control | [9] 91 % of control | [7] 100 % of control | [10] 94 % of control

CCOc1cc(/C=N\N=C\c2ccc(O)c(OCC)c2)ccc1O
inactive: [5] 93 % of control | [6] 94 % of control | [7] 88 % of control

CCOc1ccc(NC(=O)Nc2ccccc2C(F)(F)F)cc1
inactive: [5] 89 % of control | [6] 96 % of control | [7] 100 % of control

O=Cc1ccc2c3c(cccc13)CC2
inactive: [14] 96 % of control | [15] 101 % of control | [16] 100 % of control

C[N+](C)(C)CCOc1ccccc1Cc1ccccc1
inactive: dose: 1.56 mg/kg/injection, schedule: Q01DX003 (ip), vehicle: saline 96 % of control | dose: 3.12 mg/kg/injection, schedule: Q01DX003 (ip), vehicle: saline 100 % of control | dose: 3.12 mg/kg/injection, schedule: Q01DX009 (ip), vehicle: saline 96 % of control and 100 % of control | dose: 6.25 mg/kg/injection, schedule: Q01DX003 (ip), vehicle: saline 96 % of control | dose: 6.25 mg/kg/injection, schedule: Q01DX009 (ip), vehicle: saline 106 % of control | dose: 12.5 mg/kg/injection, schedule: Q01DX009 (ip), vehicle: saline 105 % of control and 89 % of control | dose: 12.5 mg/kg/injection, schedule: Q04DX003 (ip), vehicle: saline 111 % of control
